In ChEMBL document CHEMBL1129158, “Marine sponge bis(indole) alkaloids that displace ligand binding to 1 adrenergic receptors” (Bioorg Med Chem Lett, 1996):

How the values were obtained:
[1] = target: Adrenergic receptors; alpha-1 A & B (Homo sapiens) (UniProt P35348+P35368); assay: Selectivity is determined from the ratio of binding affinities of alpha 1a adrenoceptor to alpha 1b adrenoceptor; assay type: protein assay
[2] = target: T1, Alpha-1A adrenergic receptor (Homo sapiens, UniProt P35348); assay: Compound was tested for its binding affinity towards CHO cells expressing human Alpha-1a adrenergic receptor by displacing [125I]HEAT (2-beta-(4-hydroxyphenyl)-ethylaminomethyltetralone); assay type: cell-based
T1 sequence (P35348 whole entry): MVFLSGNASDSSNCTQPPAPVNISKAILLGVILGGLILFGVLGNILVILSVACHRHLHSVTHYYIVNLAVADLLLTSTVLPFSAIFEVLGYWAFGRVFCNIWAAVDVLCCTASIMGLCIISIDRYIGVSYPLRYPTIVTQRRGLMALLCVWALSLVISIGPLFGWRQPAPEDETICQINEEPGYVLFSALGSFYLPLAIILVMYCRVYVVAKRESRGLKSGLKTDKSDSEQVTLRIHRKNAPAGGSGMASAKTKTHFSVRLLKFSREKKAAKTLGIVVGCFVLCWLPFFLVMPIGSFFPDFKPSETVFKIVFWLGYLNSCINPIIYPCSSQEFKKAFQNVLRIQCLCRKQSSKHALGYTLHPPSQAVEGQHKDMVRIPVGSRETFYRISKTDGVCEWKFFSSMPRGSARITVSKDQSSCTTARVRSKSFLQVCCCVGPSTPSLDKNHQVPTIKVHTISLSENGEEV

[3] = target: T2, Alpha-1B adrenergic receptor (Homo sapiens, UniProt P35368); assay: Binding affinity against human Alpha-1b adrenergic receptor
T2 sequence (P35368 whole entry): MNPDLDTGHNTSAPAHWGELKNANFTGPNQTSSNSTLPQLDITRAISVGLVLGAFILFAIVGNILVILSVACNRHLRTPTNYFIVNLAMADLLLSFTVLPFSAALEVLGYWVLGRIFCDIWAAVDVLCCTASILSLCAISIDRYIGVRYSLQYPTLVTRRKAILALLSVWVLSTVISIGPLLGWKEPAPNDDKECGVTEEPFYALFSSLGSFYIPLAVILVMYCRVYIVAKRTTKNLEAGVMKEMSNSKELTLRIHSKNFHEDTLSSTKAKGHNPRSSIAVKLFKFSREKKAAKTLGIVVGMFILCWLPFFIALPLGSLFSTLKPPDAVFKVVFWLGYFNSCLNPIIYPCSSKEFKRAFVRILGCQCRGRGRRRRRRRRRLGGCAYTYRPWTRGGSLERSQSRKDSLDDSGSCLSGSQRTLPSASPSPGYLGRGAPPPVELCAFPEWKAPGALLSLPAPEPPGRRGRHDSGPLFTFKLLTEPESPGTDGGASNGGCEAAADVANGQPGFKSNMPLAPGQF

[4] = target: T3, Alpha-1A adrenergic receptor (Rattus norvegicus, UniProt P43140); assay: Binding affinity was determined against Alpha-1a adrenergic receptor
T3 sequence (P43140 whole entry): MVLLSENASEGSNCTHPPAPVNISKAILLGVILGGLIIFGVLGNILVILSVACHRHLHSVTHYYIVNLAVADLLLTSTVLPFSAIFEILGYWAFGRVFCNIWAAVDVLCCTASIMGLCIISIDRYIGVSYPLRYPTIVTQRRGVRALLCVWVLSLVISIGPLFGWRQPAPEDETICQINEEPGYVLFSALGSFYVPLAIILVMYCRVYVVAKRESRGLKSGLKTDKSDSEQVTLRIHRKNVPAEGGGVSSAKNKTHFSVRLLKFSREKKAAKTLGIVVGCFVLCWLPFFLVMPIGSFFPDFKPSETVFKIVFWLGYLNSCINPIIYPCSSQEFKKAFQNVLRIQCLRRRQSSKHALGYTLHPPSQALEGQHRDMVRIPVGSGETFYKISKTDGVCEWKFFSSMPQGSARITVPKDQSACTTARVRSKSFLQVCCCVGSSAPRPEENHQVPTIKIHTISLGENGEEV

[5] = target: Alpha-1B adrenergic receptor (Mesocricetus auratus, UniProt P18841); assay: Compound was tested for its binding affinity towards Rat-1 cells stably expressing hamster alpha-1b adrenergic receptor by displacing [125I]HEAT (2-beta-(4-hydroxyphenyl)-ethylaminomethyltetralone); assay type: cell-based
Alpha-1B adrenergic receptor (Mesocricetus auratus, UniProt P18841), sequence (P18841 whole entry, looked up): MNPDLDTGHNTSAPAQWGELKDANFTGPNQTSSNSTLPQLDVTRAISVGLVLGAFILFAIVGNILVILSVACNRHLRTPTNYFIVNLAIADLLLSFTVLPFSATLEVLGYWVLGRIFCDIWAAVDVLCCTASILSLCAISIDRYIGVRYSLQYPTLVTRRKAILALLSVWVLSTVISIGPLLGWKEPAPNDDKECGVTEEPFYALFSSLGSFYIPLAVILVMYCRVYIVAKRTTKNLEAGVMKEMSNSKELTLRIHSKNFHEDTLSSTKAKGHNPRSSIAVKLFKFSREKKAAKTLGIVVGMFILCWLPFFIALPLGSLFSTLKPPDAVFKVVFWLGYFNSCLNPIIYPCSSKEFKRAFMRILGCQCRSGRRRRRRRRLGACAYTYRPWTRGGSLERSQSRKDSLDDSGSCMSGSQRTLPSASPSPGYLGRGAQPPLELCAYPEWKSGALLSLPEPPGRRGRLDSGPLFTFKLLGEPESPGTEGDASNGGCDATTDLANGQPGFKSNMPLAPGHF

Row | SMILES | Selectivity [1] | Ki [2] [nM] | Ki [3] [nM] | Ki [4] [nM] | Ki [5] [nM]
1 | Brc1ccc2c(-c3nc(-c4c[nH]c5ccccc45)c[nH]3)c[nH]c2c1 [NORTOPSENTIN B] | 5.9 | 770 | – | – | –
2 | CN1C[C@H](c2c[nH]c3c(Br)c(Br)cc(O)c23)NC[C@H]1c1c[nH]c2cc(Br)ccc12 | 1.8 | 140 | 78 | 138 | –
3 | O=C(c1nc(-c2c[nH]c3ccccc23)c[nH]1)c1c[nH]c2cc(O)ccc12 [TOPSENTIN] | 4.1 | – | – | – | 4740
4 | O=C(c1nc(-c2c[nH]c3cc(Br)ccc23)c[nH]1)c1c[nH]c2cc(O)ccc12 [BROMOTOPSENTIN] | 17 | 12600 | – | – | –
5 | Brc1ccc2c(-c3c[nH]c(-c4c[nH]c5ccccc45)n3)c[nH]c2c1 [NORTOPSENTIN C] | 3.2 | 550 | – | – | –
6 | Brc1ccc2c(-c3c[nH]c(-c4c[nH]c5cc(Br)ccc45)n3)c[nH]c2c1 [NORTOPSENTIN A] | 4.1 | 2140 | – | – | –
